# Assay results reported in patent US10774112B2, “Biomimetic peptide and biodegradable delivery platform for the treatment of angiogenesis- and lymphangiogenesis-dependent diseases” (THE JOHNS HOPKINS UNIVERSITY, priority 2013, dated 2020).
# Legend:
# [1] = test system: choroidal neovascularization; experiment: Laser induced choroidal neovascularization (CNV) model; assay type: in vivo, mice
# Experimental: Mouse Model of Choroidal Neovascularization (CNV).
# Laser photocoagulation-induced rupture of Bruch's membrane was used to generate CNV. Briefly, 4-5 week old female C57BL/6J mice were anesthetized with xylazine hydrochloride (10 mg/kg) and ketamine hydrochloride (50 mg/kg) and the pupils were dilated with 1% tropicamide (Alcon Labs, Inc., Fort Worth, Tex., USA). Three burns of 532-nm diode laser photocoagulation (75 μm spot size, 0.1 s duration, 120 mW) were delivered to each retina using the slit lamp delivery system of an OcuLight GL Photocoagulator (Index, Mountain View, Calif., USA) and a hand-held cover slide as a contact lens. Burns were performed in the 9, 12 and 3 o'clock positions of the posterior pole of the retina. Production of a bubble at the time of laser photocoagulation, which indicates rupture of Bruch's membrane, is an important factor in obtaining CNV, so only burns in which a bubble was produced were included in the study. Treatments were begun seven days after laser photocoagulation and included intravitreous injections of 0.1% of SP2043 (SEQ ID NO: 1) (1 μg in a volume of 1 μL), 1% ([…] in a volume of 1 μL of SP2043 (SEQ ID NO: 1)) or vehicle under a dissecting microscope with a Harvard Pump Microinjection System (Harvard Apparatus, Holliston, Mass.) and pulled glass micropipettes. Some mice were euthanized for baseline measurement. Fourteen days after laser, the remaining mice were used to measure the amount of CNV at Bruch's membrane rupture sites. Two weeks after rupture of Bruch's membrane, mice were anesthetized and perfused with fluorescein-labeled dextran (2×10^6 average mol wt, Sigma-Aldrich, St. Louis, Mo., USA) and choroidal flat mounts were prepared as described previously. Briefly, the eyes were removed, fixed for 1 h in 10% phosphate-buffered formalin, and the cornea and lens were removed. […] Flat mounts were examined by fluorescence microscopy using an Axioskop microscope (Zeiss, Thornwood, N.Y., USA) and images were digitized using a 3 CCD color video camera (IK-TU40A, Toshiba, Tokyo, Japan) and a frame grabber. […]
# lymphangiogenesis = experiment: Lymphangiogenesis in vivo (LYVE-1 staining); details: FIG. 11
# MDA-MB-231-luc tumors = experiment: TCM-induced metastasis model; assay type: in vivo, mice
# Experimental: TCM-Induced Metastasis Model.
# Before tumor inoculation, athymic nude mice (female 5-6 weeks, 18-20 g) were treated with 50 μL TCM or SFM subcutaneously through the scruff for 2 weeks. After 2 weeks of TCM treatment, MDA-MB-231-luc-D3H2LN tumor xenografts were established in the same animals; the cells (2×10^6) were mixed with 50 μL complete media (RPMI-1640 supplemented with 10% FBS), and 50 μL Matrigel (High Concentrated, BD Biosciences) and injected into the upper inguinal mammary fat pad of the animals under anesthesia (50 mg/kg ketamine+5 mg/kg acepromazine in PBS, 50 μL/animal, intraperitoneally dosed). The primary tumor size was measured by using a caliper, and the volume w calculated, using the formula: V=0.52×a×b^2, where ‘a’ is the long axis, and ‘b’ is the short axis of the tumor. Animals were also imaged every week to track anterior tumor metastases, using the IVIS Xenogen 200 optical imager (Xenogen, Alameda, Calif.) after intraperitoneal injection of d-luciferin (Caliper 150 mg/kg). 100 μL D-luciferin (twice diluted) was intraperitoneally dosed on both sides of the abdomen (total 200 μL/animals) to prevent i.p. injection failure. […] Luciferase-mediated photon flux was quantified by using Living Image® 3D Analysis (Xenogen), and the average photon flux was obtained from eight lungs, eight brains, and 14-16 LNs as described before. […]
# [2] = test system: triple-negative breast cancer cell line MDA-MB-231; experiment: Proliferation assay (WST-1), MDA-MB-231; assay type: cell-based, human; details: in vitro; FIG. 7
# Experimental: A colorimetric based proliferation assay using WST-1 (Roche, 11644807001) proliferation reagent was carried out using HREC cells, HUVEC cells, and the breast cancer cells MDA-MB-231, MCF-7, and SUM149. 2000 cells/well were plated in 96-well plates and allowed to adhere overnight. On the following day, the media was exchanged with fully supplemented media containing peptides or equivalent DMSO vehicle for the controls. Three days later, the media containing the peptides was replaced with serum-free EBM-2 media containing WST-1 reagent and the plates were incubated for four hours as per the manufacturer's recommendations. Changes in color, due to the formazan dye resulted from the cleavage of the tetrazolium salt WST-1 by the mitochondrial succinate-tetrazolium reductase, were read on a Victor V fluorescence plate reader (Perkin Elmer, Mass.) by measuring the absorbance at 450 nm. Dose response curves of percent live cells (in comparison to untreated cells, but incubated in complete media with 0.2% DMSO) were created. Assays were performed in at least two independent replicates and each replicate was performed using three experimental triplicates.
# [3] = test system: hepatocyte growth factor (HGF) signaling; experiment: HGF signaling in vitro in LEC; assay type: cell-based; details: FIG. 6
sequence,measurement,setting,value
LRRFSTAPFAFIDINDVINF (Artificial sequence based on human Collagen Type IV protein) [SP2043],"effect in combination with other anti-angiogenesis agents, such as aflibercept","[1]; laser-induced choroidal neovascularization model in mice, FIG. 28",increased effect
same,neovascularization in laser induced CNV model,"[1]; mouse, FIGS. 13A-B",inhibited
same,potency in laser induced CNV model compared with aflibercept,"[1]; mouse, FIGS. 13A-B",more potently than aflibercept
same,lymphangiogenesis as seen by LYVE-1 staining,lymphangiogenesis,inhibited
same,"metastasis of MDA-MB-231-luc tumors to lymph nodes, vimentin antibody staining for human cells",MDA-MB-231-luc tumors; FIG. 12B,inhibited
same,"metastasis of MDA-MB-231-luc tumors to multiple organs, photon flux from tumor cells","MDA-MB-231-luc tumors; tumor-conditioned media pre-treated metastasis model, FIG. 12A",inhibited
same,proliferation of MDA-MB-231,[2],inhibit
same,HGF signaling in LEC,[3],inhibit
